Earlier results, collected in US20260285919A1, “RECOMBINANT PEPTIDES AND COMPOSITIONS THEREOF FOR PAIN MANAGEMENT” (UNIVERSITY OF ROCHESTER, priority 2023, published 2026).

How the values were obtained:
[1] = system: mice; conditions: for pain responses in injected paws: injected into the paws of mice
[2] = system: human ASIC1b; conditions: human ASIC1b protein, as opposed to rodent ASIC1b

Substance | pain responses in injected paws [1] | analgesic effect in mice where ASIC1a is genetically deleted ([1]; ASIC1a genetically deleted mice, ASIC1b present) | effect on the activity of human ASIC1b [2]
PcTx1 (EDCIPKWKGCVNRHGDCCEGLECWKRRRSFEVCVPKTPKT; UniProt P60514 1-40, looked up) | this effect is not seen | – | –
mambalgin | much less sensitive | still works | increases the activity of human ASIC1b
